Data reported in patent US20060073220A1, “Cinnamon extract enriched for polyphenols and methods of preparing same” (priority 2004, published 2006).
Values after ≈ are worked out from the molar mass of the structure shown.

Tests used:
[1] = tested on: HSV-1; test: antiviral assay, HSV-1; assay type: cell-based, Herpes simplex virus 1; details: positive control, HHF cells
[2] = tested on: HSV-2; test: antiviral assay, HSV-2; assay type: cell-based, Herpes simplex virus 2; details: positive control, HHF cells
[3] = tested on: Influenza B; test: antiviral assay, Influenza B; assay type: cell-based; details: positive control, MDCK cells
[4] = tested on: RSV (respiratory syncytial virus); test: RSV (respiratory syncytial virus) assay; assay type: cell-based
[5] = tested on: Rhinovirus Type 2; test: antiviral assay, Rhinovirus Type 2; assay type: cell-based
[6] = tested on: Punta Toro A; test: antiviral assay, Punta Toro A; assay type: cell-based, Punta Toro A virus
[7] = tested on: Influenza A; test: Influenza A assay (strain not stated for the control); assay type: cell-based, influenza A virus
[8] = tested on: West Nile Virus; test: antiviral assay, West Nile Virus; assay type: cell-based; details: positive control, Vero cells
[9] = tested on: PIV (parainfluenza virus); test: PIV (parainfluenza virus) assay; assay type: cell-based
[10] = tested on: Adenovirus Type 1; test: antiviral assay, Adenovirus Type 1; assay type: cell-based

| SMILES | ED50 HSV1 assay [1] | ED50 HSV2 assay [2] | ED50 Influenza B assay [3] | ED50 RSV assay [4] | ED50 Rhinovirus assay [5] | ED50 Punta Toro A assay [6] | ED50 Influenza A assay [7] | ED50 West Nile viral assay [8] | ED50 PVI (parainfluenza virus) assay [9] | ED50 Adenovirus type 1 assay [10] |
| --- | --- | --- | --- | --- | --- | --- | --- | --- | --- | --- |
| Nc1nc2c(ncn2COCCO)c(=O)[nH]1 [acyclovir] | 1 to 2 µg/mL | 1 to 2 µg/mL | – | – | – | – | – | – | – | – |
| NC(=O)c1ncn([C@@H]2O[C@H](CO)[C@@H](O)[C@H]2O)n1 [ribivarin] | – | – | 2 to 3 µg/mL | 20 µg/mL (≈ 81.9 µM) | < 1 µg/mL | 20 µg/mL (≈ 81.9 µM) | 2 to 3 µg/mL | 20 µg/mL (≈ 81.9 µM) | 20 µg/mL (≈ 81.9 µM) | 10 µg/mL (≈ 40.9 µM) |
